Laboratory results taken from US6509341B1, “Carboxylic acid derivatives, carrying amido side-chains; production and use as endothelin receptor antagonists” (Abbott Laboratories, priority 1997, dated 2003).

Experiments:
[1] = biological target: T1, human ETB receptor (Homo sapiens, UniProt P24530); assay: ETB receptor binding assay ([125I]-ET3, CHO cell membranes); settings: cloned human ETB receptor, 25 pM [125I]-ET3, 25° C.
T1 construct: expressed in transfected cells; host or cells: CHO cells (membrane preparation)
T1 sequence (P24530 27-442): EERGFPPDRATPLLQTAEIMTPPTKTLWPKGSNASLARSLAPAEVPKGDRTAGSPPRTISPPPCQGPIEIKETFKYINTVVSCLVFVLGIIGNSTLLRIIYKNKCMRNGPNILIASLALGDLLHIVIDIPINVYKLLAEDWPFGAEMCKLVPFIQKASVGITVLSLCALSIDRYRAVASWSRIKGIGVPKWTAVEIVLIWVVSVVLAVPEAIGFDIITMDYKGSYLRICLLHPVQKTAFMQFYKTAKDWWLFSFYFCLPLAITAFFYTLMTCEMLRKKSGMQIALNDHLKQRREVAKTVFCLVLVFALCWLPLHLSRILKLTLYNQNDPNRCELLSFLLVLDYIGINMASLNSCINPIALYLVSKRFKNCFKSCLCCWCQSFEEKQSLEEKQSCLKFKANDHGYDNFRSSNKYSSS
Procedure: (§1) Cloned human ETA or ETB receptor-expressing CHO cells were employed for binding studies.
(§2) The ETA or ETB receptor-expressing CHO cells were grown in DmeM NUT MIX F12-medium (Gibco, No. 21331-020) with 10% fetal calf serum (PAA Laboratories GmbH, Linz, No. A15-022), 1 mM glutamine (Gibco No. 25030-024), 100 U/ml penicillin and 100 μg/ml streptomycin (Gibco [sic], Sigma No. P-0781). After 48 hours, the cells were washed with PBS and incubated with 0.05% trypsin-containing PBS at 37° C. for 5 minutes. This was followed by neutralization with medium, and the cells were collected by centrifugation at 300×g.
(§3) For the membrane preparation, the cells were adjusted to a concentration of 10^8 cells/ml of buffer (50 mM tris.HCL [sic] buffer, pH 7.4) and then disintegrated by ultrasound Branson Sonifier 250, 40-70 seconds/constant/output [sic] 20).
(§4) For the ETA and ETB receptor binding assay, the membranes were suspended in incubation buffer (50 mM tris-HCl, pH 7.4 with 5 mM MnCl2, 40 mg/ml Bacitracin and 0.2% BSA) in a concentration of 50 μg of protein per assay mixture and incubated with 25 pM [125I]-ET1 [sic] (ETA receptor assay) or 25 pM [125I]-ET3 [sic] (ETB receptor assay) at 25° C. in the presence and absence of test substance. The nonspecific binding was determined with 10^−7 M ET1. After 30 min, filtration through GF/B glass fiber filters (Whatman, England) in a Skatron cell harvester (Skatron, Lier, Norway) was carried out to separate free and bound radioligand, and the filters was washed with ice-cold tris-HCl buffer, pH 7.4 with 0.2% BSA. The radioactivity collected on the filters was quantified using a Packard 2200 CA liquid scintillation counter.
(§5) Receptor binding data were measured by the binding assay described above for the compounds listed below.

[2] = biological target: T2, human ETA receptor (Homo sapiens, UniProt P25101); assay: ETA receptor binding assay ([125I]-ET1, CHO cell membranes); settings: cloned human ETA receptor, 25 pM [125I]-ET1, 25° C.
T2 construct: expressed in transfected cells; host or cells: CHO cells (membrane preparation)
T2 sequence (P25101 21-427): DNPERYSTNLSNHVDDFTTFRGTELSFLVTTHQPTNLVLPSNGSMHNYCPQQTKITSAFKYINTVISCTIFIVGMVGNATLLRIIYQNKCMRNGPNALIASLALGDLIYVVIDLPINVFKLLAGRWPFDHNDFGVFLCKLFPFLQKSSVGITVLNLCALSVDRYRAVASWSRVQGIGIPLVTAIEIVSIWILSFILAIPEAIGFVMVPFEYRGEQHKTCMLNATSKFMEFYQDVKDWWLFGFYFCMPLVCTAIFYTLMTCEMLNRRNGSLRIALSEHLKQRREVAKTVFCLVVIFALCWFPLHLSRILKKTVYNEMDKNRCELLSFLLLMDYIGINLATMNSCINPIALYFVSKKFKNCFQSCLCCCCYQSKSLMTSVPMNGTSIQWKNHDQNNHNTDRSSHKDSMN
Procedure: as §1, §2, §3, §4, §5

| SMILES | Ki [1] | Ki [2] | melting point |
| --- | --- | --- | --- |
| Cc1cc(C)nc(OC(C(=O)O)C(OCC(=O)N(C)c2ccccc2)(c2ccccc2)c2ccccc2)n1 (centres unmarked) [Compound I-109, 2-(4,6-Dimethyl-2-pyrimidinyloxy)-3-(N-methyl-N-phenylcarbamoylmethoxy)-3,3-diphenylpropionic acid] | 142 nM | 0.4 nM |  |
| COc1cc(C)nc(OC(C(=O)O)C(OCC(=O)N(C)c2ccccc2)(c2ccccc2)c2ccccc2)n1 (centres unmarked) [Compound I-111, 2-(4-methyl-6-methoxy-2-pyrimidinyloxy)-3-(N-methyl-N-phenylcarbamoylmethoxy)-3,3-diphenylpropionic acid] | 109 nM | 0.3 nM |  |
| Cc1cc(C)nc(OC(C(=O)O)C(OCC(=O)N2CCc3ccccc3C2)(c2ccccc2)c2ccccc2)n1 (centres unmarked) [Compound I-307, 2-(4,6-Dimethyl-2-pyrimidinyloxy)-3-(2-oxo-2-(1,2,3,4-tetrahydroisoquinolin-2-yl)ethoxy)-3,3-diphenylpropionic acid] | 10 nM | 1.6 nM |  |
| COc1cc(C)nc(OC(C(=O)O)C(OCC(=O)N2CCc3ccccc3C2)(c2ccccc2)c2ccccc2)n1 (centres unmarked) [Compound I-309, 2-(4-Methyl-6-methoxy-2-pyrimidinyloxy)-3-(2-oxo-2-(1,2,3,4-tetrahydroisoquinolin-2-yl)ethoxy)-3,3-diphenylpropionic acid] | 12 nM | 1 nM |  |
| CCCCN(CCCC)C(=O)COC(c1ccccc1)(c1ccccc1)C(Oc1nc(C)cc(C)n1)C(=O)O (centres unmarked) [Compound I-347, 2-(4,6-Dimethyl-2-pyrimidinyloxy)-3-(N,N-dibutylcarbamoylmethoxy)-3,3-diphenylpropionic acid] | 155 nM | 3.8 nM |  |
| CCCCN(CCCC)C(=O)COC(c1ccccc1)(c1ccccc1)C(Oc1nc(C)cc(OC)n1)C(=O)O (centres unmarked) [Compound I-349, 2-(4-Methyl-6-methoxy-2-pyrimidinyloxy)-3-(N,N-dibutylcarbamoylmethoxy)-3,3-diphenylpropionic acid] | 142 nM | 3 nM |  |
| COc1cc2c(cc1OC)CN(C(=O)COC(c1ccccc1)(c1ccccc1)C(Oc1nc(C)cc(C)n1)C(=O)O)CC2 (centres unmarked) [Example 34, 2-(4,6-Dimethylpyrimidin-2-yloxy)-3-(2-oxo-2-(6,7-dimethoxy-1,2,3,4-tetrahydroisoquinolin-2-yl)ethoxy)-3,3-diphenylpropionic acid] |  |  | 145 to 148 °C |
| Cc1cc(C)nc(OC(C(=O)O)C(OCC(=O)N2Cc3ccccc3C(C)(C)C2)(c2ccccc2)c2ccccc2)n1 (centres unmarked) [Example 35, 2-(4,6-Dimethylpyrimidin-2-yloxy)-3-(2-oxo-2-(4,4-dimethyl-1,2,3,4-tetrahydroisoquinolin-2-yl)ethoxy)-3,3-diphenylpropionic acid] |  |  | 185 to 187 °C |
